# Reference: article PMC9598822, “Increased Susceptibility of Mycobacterium tuberculosis to Ethionamide by Expressing PPs-Induced Rv0560c” (Antibiotics, 2022)
# Target: Rv2887 (Mycobacterium tuberculosis, UniProt P9WME9)
# Experiment: biochemical
# Sequence of Rv2887 (P9WME9 whole entry): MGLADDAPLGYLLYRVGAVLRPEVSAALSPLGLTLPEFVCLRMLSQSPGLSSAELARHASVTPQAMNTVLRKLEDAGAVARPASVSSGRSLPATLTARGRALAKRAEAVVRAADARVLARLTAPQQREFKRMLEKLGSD
row,SMILES,Kd
1,CCCCOc1ccc2cc(CN3C(=O)CC[C@H]3C(=O)OC)c3cc(OC)c(OC)cc3c2c1 [PP2S],250 µM
2,COC(=O)[C@@H]1CCC(=O)N1Cc1cc2ccc(OC)cc2c2cc(OC)c(OC)cc12 [PP1S],274 µM
